# Measurements reported in paper PMC7854658, “Structural basis for ligand recognition of the neuropeptide Y Y2 receptor” (Nature Communications, 2021).
# Where a chain is given by its changes, count along the chain named. “And” between values parts separate entries of the source, which are not always exact repeats. Identical values can stand only once.
# Experiments:
# Test in all cases: NPY-induced IP accumulation (IP-One), mutant
# Type in all cases: cell-based
# Y2R mutant D292^6.59N = molecular target: T1, Y2R mutant D292^6.59N (Homo sapiens, UniProt P49146, D292N)
# T1 construct: expressed in transfected cells; host or cells: HEK293
# T1 sequence (P49146 1-381 D292N): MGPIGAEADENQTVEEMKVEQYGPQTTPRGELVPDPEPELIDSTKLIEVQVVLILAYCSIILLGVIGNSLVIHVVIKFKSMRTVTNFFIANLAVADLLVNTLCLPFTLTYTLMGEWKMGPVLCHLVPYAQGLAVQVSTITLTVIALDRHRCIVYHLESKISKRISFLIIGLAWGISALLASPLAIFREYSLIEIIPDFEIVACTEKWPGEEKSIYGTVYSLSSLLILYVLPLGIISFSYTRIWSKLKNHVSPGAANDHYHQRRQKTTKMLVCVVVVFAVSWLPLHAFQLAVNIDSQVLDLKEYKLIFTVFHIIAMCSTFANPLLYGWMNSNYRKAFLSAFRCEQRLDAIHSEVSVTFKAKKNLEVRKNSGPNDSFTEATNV
# Y2R mutant T111^2.65A = molecular target: T2, Y2R mutant T111^2.65A (Homo sapiens, UniProt P49146, T111A)
# T2 construct: expressed in transfected cells; host or cells: HEK293
# T2 sequence (P49146 1-381 T111A): T1 sequence (P49146 1-381 D292N) with T111A, N292D
# Y2R mutant V126^3.28A = molecular target: T3, Y2R mutant V126^3.28A (Homo sapiens, UniProt P49146, V126A)
# T3 construct: expressed in transfected cells; host or cells: HEK293
# T3 sequence (P49146 1-381 V126A): T1 sequence (P49146 1-381 D292N) with V126A, N292D
# Y2R mutant W281^6.48T = molecular target: T4, Y2R mutant W281^6.48T (Homo sapiens, UniProt P49146, W281T)
# T4 construct: expressed in transfected cells; host or cells: HEK293
# T4 sequence (P49146 1-381 W281T): T1 sequence (P49146 1-381 D292N) with W281T, N292D
# Y2R mutant Y110^2.64A = molecular target: T5, Y2R mutant Y110^2.64A (Homo sapiens, UniProt P49146, Y110A); settings: 1 μM antagonist, source data Fig. 3
# T5 construct: expressed in transfected cells; host or cells: HEK293
# T5 sequence (P49146 whole entry Y110A): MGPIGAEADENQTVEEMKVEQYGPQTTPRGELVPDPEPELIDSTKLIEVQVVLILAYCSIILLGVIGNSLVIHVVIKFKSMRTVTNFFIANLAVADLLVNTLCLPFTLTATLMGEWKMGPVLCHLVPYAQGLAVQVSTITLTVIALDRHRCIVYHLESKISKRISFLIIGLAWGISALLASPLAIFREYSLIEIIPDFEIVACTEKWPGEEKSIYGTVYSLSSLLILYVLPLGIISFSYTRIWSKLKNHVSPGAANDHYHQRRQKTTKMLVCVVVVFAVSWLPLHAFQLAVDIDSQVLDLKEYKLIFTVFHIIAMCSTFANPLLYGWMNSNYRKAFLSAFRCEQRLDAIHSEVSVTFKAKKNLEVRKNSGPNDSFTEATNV
# Y2R mutant Y219^5.38A = molecular target: T6, Y2R mutant Y219^5.38A (Homo sapiens, UniProt P49146, Y219A); settings: 1 μM antagonist, source data Fig. 3
# T6 construct: expressed in transfected cells; host or cells: HEK293
# T6 sequence (P49146 whole entry Y219A): as the sequence (P49146 whole entry Y110A) above, with A110Y, Y219A counted along it
# [1] = 1 μM antagonist, source data Fig. 3
# [2] = EC50(NPY + 1 μM antagonist)/EC50(NPY)
# [3] = EC50 ratio (WT)/EC50 ratio (mutant)
smiles,measurement,setting,value
N=C(N)NCCC[C@H](NC(=O)CC1(CC(=O)N2CCN(C3c4ccccc4NC(=O)c4ccccc43)CC2)CCCC1)C(=O)NCCn1c(=O)n(-c2ccccc2)n(-c2ccccc2)c1=O (stereo partly shown) [BIIE0246],Average EC50 ratio,Y2R mutant D292^6.59N; [1],66.7
same,EC50 ratio (individual experiments),Y2R mutant D292^6.59N; [1],70.5 and 62.9
same,EC50 ratio,Y2R mutant D292^6.59N; [2],71 and 63
same,Average EC50 ratio,Y2R mutant T111^2.65A; [1],247.7
same,EC50 ratio (individual experiments),Y2R mutant T111^2.65A; [1],265.4 and 230.1
same,EC50 ratio,Y2R mutant T111^2.65A; [2],265 and 230
same,Ratio change (fold),Y2R mutant T111^2.65A; [3],0.6 fold and 0.7 fold
same,Average EC50 ratio,Y2R mutant V126^3.28A; [1],302.6
same,EC50 ratio (individual experiments),Y2R mutant V126^3.28A; [1],285.2 and 320.0
same,EC50 ratio,Y2R mutant V126^3.28A; [2],285 and 320
same,Ratio change (fold),Y2R mutant V126^3.28A; [3],0.6 fold and 0.5 fold
same,Average EC50 ratio,Y2R mutant W281^6.48T; [1],2.6
same,EC50 ratio (individual experiments),Y2R mutant W281^6.48T; [1],3.3 and 2.0
same,EC50 ratio,Y2R mutant W281^6.48T; [2],3 and 2
same,Ratio change (fold),Y2R mutant W281^6.48T; [3],48 fold and 80 fold
same,Average EC50 ratio,Y2R mutant Y110^2.64A,47.6
same,EC50 ratio (individual experiments),Y2R mutant Y110^2.64A,25.1 and 70.1
same,Average EC50 ratio,Y2R mutant Y219^5.38A,97.9
same,EC50 ratio (individual experiments),Y2R mutant Y219^5.38A,48.6 and 147.2
